Source: BigSolDB 2.1

C[C@H](N)C(=O)O
solubility (mole fraction)
Settings | 283.15 K | 293.15 K | 303.15 K | 313.15 K | 323.15 K
in acetone | 7.1e-05 | 0.000116 | 0.000138 | 0.000166 | 0.000202
in acetonitrile | 7.6e-05 | 0.000121 | 0.000157 | 0.000178 | 0.000209
in ethanol | 0.000193 | 0.000226 | 0.000244 | 0.000251 | 0.00027
in ethyl acetate | 7.8e-05 | 0.00014 | 0.00016 | 0.00018 | 0.000217
in isobutanol | 0.000294 | 0.000314 | 0.000332 | 0.000346 | 0.000361
in isopropanol | 8.2e-05 | 0.000144 | 0.000174 | 0.00019 | 0.000245
in methanol | 0.000407 | 0.000428 | 0.00049 | 0.000531 | 0.00062
in n-butanol | 0.000414 | 0.000449 | 0.000517 | 0.000611 | 0.000895
in n-pentanol | 0.000216 | 0.000253 | 0.00032 | 0.000382 | 0.000465
in n-propanol | 0.000122 | 0.000215 | 0.000261 | 0.000313 | 0.000452
in sec-butanol | 0.000297 | 0.000333 | 0.000407 | 0.000552 | 0.000734
in water | 0.0279 | 0.0308 | 0.0342 | 0.038 | 0.042
